According to patent US20240374558A1, “PREPARATION OF PHENE[…] […] STEREOISOMERS THEREOF AND PRECURSORS THEREOF” (priority 2022, published 2024):
Like-named read-outs stand apart in the source and are kept apart here.

Columns and labels:
NET = NET (Rattus norvegicus, UniProt Q63380); assay: NE release study; type: biochemical
[1] = test system: rat forced swim test (FST); assay: Rat forced swim test (FST); type: in vivo; settings: 10 mg/kg, IP
Experimental: The forced swim test (FST) is a classic model to assess the antidepressant-like activity of compounds that has been in use for over 40 years (Porsolt et al. (1977) Nature 266:730-732; Detke et al. (1995) Psychopharmacology 121:66-72). […] A single dose of 5 mg/kg methylone reduces immobility by approximately 50% compared to vehicle-treated controls, whereas a 15 mg/kg dose reduces immobility by nearly 100%. Accompanying changes in climbing and/or swimming behavior reflect noradrenergic and serotonergic activities of methylone, respectively.
All FST studies are performed and scored by an experimenter blind to treatment group and according to standard protocols. Briefly, rats are placed in a circular plexiglass container filled with water. Water temperature is maintained at 22-25° C. and changed for every animal. Day 1 (Training) consists of a 15 min acclimation trial, and Day 2 (Testing, 24 h later) consists of the 5 min test. A time sampling procedure is employed where animals are observed every 5 seconds for the duration of the test session (60 counts or 5 minutes) and scored for immobility (defined as the failure to struggle), swimming (defined as a circular movement around the tank), or climbing (defined as an upwards escape behavior). Data are expressed as the percent of the testing session (e.g., the number of immobility counts divided by 60). A p-value less than 0.05 indicates statistical significance after typical statistical analyses (e.g., unpaired t-test or ANOVA).
To determine that the prodrug and/or enantiomer has an antidepressant-like effect and to compare it to methylone, rats are treated with each compound 30 min prior to testing. Additional tests are run 24, 72, 168 hours post-dose or longer. Effects on Fear Extinction in a Model of Post-Traumatic Stress Disorder (PTSD)
Racemic methylone (10 mg/kg, IP) has a maximal antidepressant-like effect in the rat forced swim test (FST), reducing immobility by nearly 100% compared to vehicle treated controls. […]

[2] = biological target: T1, norepinephrine transporter (NET) (Rattus norvegicus, UniProt Q63380); assay: Competition radioligand binding, [3H]Nisoxetine, brain synaptosome membranes; design: species or system rat (Sprague Dawley)
T1 construct: hippocampus plus overlying occipital cortex for norepinephrine transporter assays; from tissue
T1 sequence (Q63380 1-617): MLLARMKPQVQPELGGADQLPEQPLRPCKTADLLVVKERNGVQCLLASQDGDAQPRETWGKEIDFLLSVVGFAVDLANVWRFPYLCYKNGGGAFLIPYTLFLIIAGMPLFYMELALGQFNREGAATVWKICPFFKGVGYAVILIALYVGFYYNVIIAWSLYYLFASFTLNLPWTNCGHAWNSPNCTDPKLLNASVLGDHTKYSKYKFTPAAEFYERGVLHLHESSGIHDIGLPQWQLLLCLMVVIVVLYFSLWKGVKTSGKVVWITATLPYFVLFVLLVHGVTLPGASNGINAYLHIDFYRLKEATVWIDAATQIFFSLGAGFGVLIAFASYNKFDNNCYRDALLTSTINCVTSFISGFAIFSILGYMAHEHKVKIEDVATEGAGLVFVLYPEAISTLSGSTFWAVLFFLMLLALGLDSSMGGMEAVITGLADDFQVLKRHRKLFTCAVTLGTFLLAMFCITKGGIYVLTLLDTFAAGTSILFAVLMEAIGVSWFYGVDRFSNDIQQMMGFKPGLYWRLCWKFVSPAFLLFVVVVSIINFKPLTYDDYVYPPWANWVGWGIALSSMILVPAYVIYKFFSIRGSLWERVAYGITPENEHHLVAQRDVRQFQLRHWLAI
Description: Rat brain (Sprague Dawley, 200-250 g) synaptosomes were isolated from midbrain and hindbrain for serotonin transporter assays, striatum for dopamine transporter assays, and hippocampus plus overlying occipital cortex for norepinephrine transporter assays. Radioligands used were: [^3H]Citalopram 81.4 Ci/mmol (PerkinElmer NET1039250UC; Lot No. 2960876). [3H]WIN35428 82.8 Ci/mmol (PerkinElmer NET1033250UC; Lot No. 2891473). [^3H]Nisoxetine 79.2 Ci/mmol (PerkinElmer NET1084250UC; Lot No. 2970324). Non-specific compounds used were: Citalopram (Tocris Bioscience 1427). JHW007 (Tocris Bioscience 4351). Nomifensine (Abcam abl46004). Test Compounds for the study were: racemic methylone HCl; (R)-methylone HCl; (S)-methylone HCl.
For membrane preparations, rat brains were dissected, tissue was added to ice-cold lysis buffer (50 mM Tris HCl; 5 mM MgCl2; 5 mM EDTA; protease inhibitor cocktail) and homogenized. […] A sample of the homogenate was analyzed for protein content using the MERCK® BCA assay. […]
Competition binding assays were carried out in 96-well polypropylene plates in a final volume of 250 μL per well. […] Filters were then dried under a warm air stream, sealed in polyethylene, scintillation cocktail added, and the radioactivity counted in a WALLAC® TriLux 1450 MicroBeta counter. […] Ki was subsequently calculated using the ChengPrusoff equation.

[3] = self-administration, healthy volunteers; Lourdes et al. 2021; cited from earlier work
open field test (OFT) [4] = assay: Open field test (OFT); design: species or system rats; settings: rat, in vivo
Experimental: Additional behavioral testing including the elevated plus maze (EPM) and thigmotaxis in the open field test (OFT) are used to assess the anxiolytic effects of methylone and its prodrugs in mice or rats. […] These models are described in greater detail below. Prodrugs are screened in these behaviors to the anxiolytic efficacy of each compound.
Compounds are screened for their effects on both parameters. Briefly, rodents are assessed in a 30 minute OFT using an automated activity monitoring system. Rodents are acclimated to the room 30 minutes before the start of testing. The following parameters are captured: Horizontal distance travelled, overall ambulatory time, and ambulatory counts. Vertical activity (time and counts), Time in the Center vs. Periphery data are reported in 5-minute bins as well as total time.

mouse model of PTSD = assay: Fear extinction in a mouse model of PTSD; type: in vivo; settings: 30 mg/kg, IP
Experimental: FIGS. 1A-1D: Methylone improves fear extinction recall in a mouse model of PTSD. (FIG. 1A) Schematic of experimental design. A single CS-US (tone-shock) pairing on day 1 was followed by 6 CS presentations in a novel context (context B). Methylone or saline vehicle was injected 30 min prior to extinction training on day 2. On day 3, the time spent freezing to the CS was quantified. […] (FIG. 1C) The time freezing before vs. during each of 6 cues on day 3 (to control for locomotor effects) are shown. There was a significant cue x drug interaction (F(5,130)=2.409, p<0.05). […] N=12 for methylone group (30 mg/kg, IP, orange diamonds) and N=16 for saline control group (black squares). *p<0.05
Effective PTSD treatments facilitate the disassociation between a traumatic memory and the patient's fear response, making cues for the traumatic memory evoke less of a fear response. This is modeled in the mouse fear extinction paradigm which takes place over 3 days. On day 1 (fear conditioning), mice are trained to acquire a “traumatic memory,” namely associating the conditioned stimulus (CS, tone) to the unconditioned stimulus (US, foot shock). On day 2 (extinction training), they are trained to forget the traumatic memory association by presenting the CS 6 times (with no US) in a novel environment. On day 3 (extinction recall), the mice are “asked” if that tone (CS) still elicits a fearful response, as measured by the time spent freezing when the tone is presented. Less time freezing means better extinction recall. Drugs that improve extinction recall reduce freezing time on day 3, and, therefore, show potential as a PTSD treatment.
Using these methods, prodrugs and/or enantiomers are administered to mice and tested for efficacy in the fear extinction model to evaluate their efficacy to treat PTSD and other memory disorders. Anxiolytic Effects in Other Behavioral Anxiety Models

[5] = Pharmacokinetics of methylone after a single IV, PO or IP administration (LC-MS/MS of plasma); type: in vivo, male Sprague Dawley rats
Experimental: The pharmacokinetic properties of methylone after a single administration intravenously (IV), intraperitoneally (IP), or by oral gavage (PO) in male Sprague Dawley rats has been determined using a liquid chromatography tandem mass spectrometry (LC-MS/MS) method that has been established and validated for methylone in the rat. Rats (n=3 per group) received a single dose of methylone: 5 mg/kg IV, 15 mg/kg IP, or 15 mg/kg PO.
To investigate whether the prodrug extends the half-life or alters other basic pharmacokinetic properties of methylone (e.g., Cmax or Tmax), rats are treated with each prodrug IV, IP, or PO. For each compound, three groups of rats are treated as follows: For group 1, a single dose of methylone is administered to 3 male Sprague-Dawley rats by IV bolus at 5 mg/kg. For group 2, a single dose of methylone is administered to 3 male Sprague-Dawley rats by oral gavage (PO) at 15 mg/kg. For group 3, a single dose of methylone is administered to 3 male Sprague-Dawley rats by IP at 15 mg/kg. For all groups, blood samples are collected from each animal at 0.083, 0.25, 0.5, 1, 2, 4, 8, 12, and 24 hours post-dose for the determination of plasma concentrations. The plasma concentrations are quantified by liquid chromatography tandem mass spectrometry (LC-MS/MS). The bioanalytical assay has been established and validated, providing a lower limit of quantification (LLOQ) of 1 ng/mL and an upper limit of quantification (ULOQ) of 3000 ng/mL for methylone. The plasma concentration-time data are analyzed using Phoenix WinNonlin (version 8.3) to characterize the PK properties of the analyte. The non-compartmental analysis model and the linear/log trapezoidal method are applied to calculating the PK parameters.

PTSD symptoms = settings: clinical case series of 21 individuals; cited from earlier work
open field test (OFT) [6] = settings: 5, 10, 20 mg/kg, SC, rats; Stefkovi et al. 2017; cited from earlier work
[7] = XRPD analysis of pre- and post-DVS samples (form stability); type: physicochemical; settings: after DVS 5-95-5% RH
Experimental: Two lots of methylone HCl samples were submitted to evaluate the stability of the solid forms under various humidity conditions. Dynamic vapor sorption (DVS) analysis was performed to evaluate the kinetic hygroscopicity and assess if variable humidity XRPD would be necessary, as well as to determine the appropriate humidity condition(s) for such XRPD analysis. Both pre- and post-DVS samples were analyzed by conventional XRPD for solid form confirmation or any potential form changes.
Each sample was prepared in a silicon low background holder using light manual pressure to keep the sample surface flat and level with the reference surface of the sample holder. The single crystal Si low background holder has a circular recess (10 mm diameter and about 0.2 mm depth) that holds the sample. The Rigaku Smart-Lab diffraction system used was configured for Bragg-Brentano reflection geometry using a line source X-ray beam. The Bragg-Brentano geometry was controlled by passive divergence and receiving slits with the sample itself acting as the focusing component for the optics.

Chain of NET (Q63380 1-617): as above

CNC(C)C(=O)c1ccc2c(c1)OCO2 (racemic) [Racemic methylone, methylone]
EC50 (NET): 0.33 µM | reduction of immobility compared to vehicle treated controls [1]: ~100% | IC50 [2]: 3.1 µM | Ki [2]: 1.46 µM

CNC(C)Cc1ccc2c(c1)OCO2 (centres unmarked) [MDMA, 3,4-methylenedioxymethamphetamine, reference compound]
systolic and diastolic blood pressure [3]: significant increase

CNC(C)C(=O)c1ccc2c(c1)OCO2 (centres unmarked) [Methylone, methylone]
locomotor activity in the OFT (open field test (OFT) [4]): increases locomotor activity | time in the center vs the periphery in the OFT (open field test (OFT) [4]): reduces time spent in the center vs the periphery | fear extinction recall (freezing time during the first cue on day 3) vs saline (mouse model of PTSD): significantly improves fear extinction recall | locomotor changes on day 3 (mouse model of PTSD): No locomotor changes | fear extinction recall (freezing time during the first cue on day 3) vs saline (mouse model of PTSD; listed as methylone): significantly reduced | AUC0-last ([5]; Group 1 (IV), 5 mg/kg): 1200 ± 88.2 ng·h/mL | C0 ([5]; Group 1 (IV), 5 mg/kg): 3018 ± 666 ng/mL | Cl ([5]; Group 1 (IV), 5 mg/kg): 68.3 ± 5.40 mL/min/kg | MRT0-last ([5]; Group 1 (IV), 5 mg/kg): 0.439 ± 0.026 h | Vdss ([5]; Group 1 (IV), 5 mg/kg): 1.98 ± 0.230 L/kg | AUC0-last ([5]; Group 2 (PO), 15 mg/kg): 2765 ± 657 ng·h/mL | MRT0-last ([5]; Group 2 (PO), 15 mg/kg): 2.99 ± 0.467 h | T1/2 ([5]; Group 2 (PO), 15 mg/kg): 3.23 ± 1.99 h | Tmax ([5]; Group 2 (PO), 15 mg/kg): 1.33 ± 0.577 h | Cmax ([5]; Group 2 (PO), 15 mg/kg, plasma): 678 ± 243 ng/mL | AUC0-last ([5]; Group 3 (IP), 15 mg/kg): 4305 ± 1179 ng·h/mL | MRT0-last ([5]; Group 3 (IP), 15 mg/kg): 1.07 ± 0.211 h | Cmax ([5]; Group 3 (IP), 15 mg/kg, plasma): 4230 ± 514 ng/mL | Tmax ([5]; male, Sprague Dawley, rat, plasma, Group 3 (IP), 15 mg/kg, read-out: Tmax): 0.25 h | patients with improved PTSD symptoms (PTSD symptoms): 81% | thigmotaxis (time spent hugging the perimeter of the open field) (open field test (OFT) [6]): reduce thigmotaxis | heart rate [3]: increase in heart rate | systolic and diastolic blood pressure [3]: significant increase

CNC(C)C(=O)c1ccc2c(c1)OCO2.Cl [lot KRR-R&D-2022-II-58, methylone HCl]
form changes, post-DVS vs pre-DVS XRPD pattern [7]: No form changes
